Data set [1] is described as follows: In vitro half-life in liver microsomes, rat. In kind it is in vitro ADME. Particulars: up to one hour, longer half-lives are extrapolated, n=1. How it is done:
In vitro metabolism was assessed using liver microsomes for all species. Compounds were incubated at 1 μM with liver microsomes for up to one hour. Reported half-lives greater than the total incubation time are extrapolated values. Extracts were assayed for disappearance of parent compound by LC-MS/MS detection.
Data represents one independent experiment conducted.

The next data set concerns the target CYP2D6 (Homo sapiens, UniProt P10635). Description: Human liver microsomal CYP450 inhibition, CYP2D6. Particulars: for IC50, CYP2D6: human liver microsomes. In general terms: Liver microsomes are vesicles of endoplasmic reticulum, rich in cytochrome P450 enzymes.
Data set [2] relates to stimulated human primary blood mononuclear cells (PBMC). As to the kind of experiment: in vitro. As to conditions: 3 days. How it is done: Cell viability was determined via MTT staining.
Data set [3] relates to HIV-1 RT K103N mutant enzyme. In kind it is biochemical. As to conditions: Table 2; mutant vs wild-type. From the text: In Vitro Antiviral Activity Against Additional Mutant HIV RT Enzymes
Data set [4] is described as follows: Plasma protein binding by equilibrium dialysis, dog. The class given is in vitro ADME. As to conditions: for fraction unbound: dog, read-out: Percentage Plasma Protein Binding, Dogs. How it is done: The in vitro plasma protein binding of compound I and compound III in rat, dog, monkey and human plasma was determined by equilibrium dialysis. Protein binding was assessed by equilibrium dialysis using rat, dog, monkey and human plasma. Samples were assayed by HPLC with LC-MS/MS detection. Plasma protein binding was high (>99%) for all species and for both compounds.
On the technique in general: Equilibrium dialysis compares concentrations on both sides of a semipermeable membrane.

Data set [5] is described as follows: Compound depletion in hepatocytes, rat. The class given is in vitro ADME. Particulars: up to 2 hours, read-out: t½, Compound Depletion in Hepatocytes, Rat. How it is done: Fresh hepatocytes were plated onto collagen-coated plates and exposed to test compounds at 1 μM for up to 2 hours. Tissue culture medium was assayed for compound depletion by LC/MS detection. Values in Table 23 represent independent experiments from 5 to 7 donors.

A further data set has as its system wild-type HIV-1 virus. Description: In vitro drug-drug interaction with NRTIs and PIs, MT-4 cells, 45% HS. As to conditions: 45% human serum, low (1×) and high (5×) concentration. In kind it is cell-based. How it is done: The in vitro effect of each antiretroviral drug on the antiviral activity of either test article was tested in triplicate on wild-type HIV-1 virus infection of MT-4 human T cells using a standard drug susceptibility assay (DSA) performed in 45% human serum (HS) to provide a better estimate of interactions that would occur under protein binding conditions found in vivo. Compound I or Compound III were titrated alone or in combination with each NRTI or PI.
The impact of each NRTI or PI on the efficacy of Compound I or Compound III was tested at two different drug concentrations, a “low” (1×) and a “high” (5×) concentration; the high concentration used for each compound was determined from pilot experiments conducted to ensure that measurable inhibition values could still be obtained in the presence of 45% HS.
These in vitro drug-drug interaction studies were powered primarily to determine the potential for negative interactions between the different classes of HIV drugs, rather than to examine the potential for synergy between the different agents.

Data set [6] relates to CYP1A2 (activation of AhR in CYP1A2-DRE cells). Description: CYP1A2 induction screen in CYP1A2-DRE cells. The class given is cell-based, human. As to conditions: extent compared with TCDD, omeprazole, 2-acetylaminofluorene. An excerpt:
The potential for in vitro induction of CYP3A4 was screened in DPX2 cells. The DPX2 cell line is a derivative of a human hepatocellular carcinoma cell line (HepG2) transformed with the human pregnane x receptor (PXR) and a reporter gene vector containing the enhancer region of CYP3A4. The potential for in vitro induction of CYP1A2 was screened in CYP1A2-DRE cells. The CYP1A2-DRE cell line is a stably transformed HepG2 cells with dioxin response elements (DRE) and reporter gene containing CYP1A2 promoter elements. The extent of CYP3A4 induction was determined by comparing the activation of PXR obtained with test article to that obtained with rifampicine (potent inducer), mifepristone (moderate inducer) and androstanol (weak inducer). The extent of CYP1A2 induction was determined by comparing the activation of the aryl hydrocarbon receptor (AhR) obtained with test article to that obtained with TCDD (potent inducer), omeprazole (moderate inducer), and 2-acetylaminofluorene (weak inducer).

Data set [7] can be described thus: In vivo pharmacokinetics, rats. Further details: species or system rat. As to conditions: plasma. How it is done: All animals received a single oral or intravenous dose of compound in either polyethylene glycol 400 (PEG400) or a mixture of 10% ethanol (EtOH), 10% dimethylacetamine (DMA) and 80% PEG400 at the indicated dose level. Plasma concentration data were acquired using sensitive and specific LC-MS/MS methods. Pharmacokinetic data from the toxicity study included aspects of gender differences, variability and exposure.
Blood samples (1.5-2.5 mL) were collected in heparinized tubes at 0 (pre-dose), 5 (IV only), 10, 20, 30 min, 1, 2, 4, 6, 8, 12 (PO only) and 24 hr after dosing. Plasma was separated and stored at −70° C. until analysis.
Concentrations of unlabeled compound I and compound III within plasma samples and excreta from rat, dog and monkey PK studies were identified through high performance liquid chromatographic (HPLC) methods that incorporated tandem mass spectrometric detection (LC-MS/MS).
The absolute oral bioavailability was determined in pharmacokinetic by comparison of AUC values of parent compound following single intravenous and oral doses of in rats (compound III only), dogs and monkeys.

Entries after “also recorded” stand apart in the source; their conditions may differ. Where two headings read alike, the source gives them in different places.

The values below come from patent publication US8486991B2, “Enantiomerically pure phosphoindoles as HIV inhibitors” (Idenix Pharmaceuticals, Inc., priority 2006, dated 2013).

As usually defined, the IC50 is the concentration at which inhibition is half-maximal. A low value points to greater potency in that assay. As a reminder, the Tmax is the time from dosing to the highest level. As a reminder, the bioavailability is dose-corrected exposure relative to a reference, in per cent.

Chain of CYP2D6 (P10635 whole entry): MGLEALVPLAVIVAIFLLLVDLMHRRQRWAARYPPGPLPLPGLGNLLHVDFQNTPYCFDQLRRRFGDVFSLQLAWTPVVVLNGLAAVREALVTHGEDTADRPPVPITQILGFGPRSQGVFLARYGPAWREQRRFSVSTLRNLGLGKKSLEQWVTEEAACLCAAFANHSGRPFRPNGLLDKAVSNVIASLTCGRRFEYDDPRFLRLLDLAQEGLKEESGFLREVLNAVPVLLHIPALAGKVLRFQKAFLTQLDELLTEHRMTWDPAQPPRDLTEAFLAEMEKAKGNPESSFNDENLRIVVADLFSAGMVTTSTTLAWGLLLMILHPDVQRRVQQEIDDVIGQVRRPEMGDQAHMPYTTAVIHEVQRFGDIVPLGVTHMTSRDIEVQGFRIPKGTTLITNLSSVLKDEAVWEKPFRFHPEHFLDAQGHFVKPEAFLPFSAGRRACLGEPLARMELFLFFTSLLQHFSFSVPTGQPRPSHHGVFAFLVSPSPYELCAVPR
Procedure for CYP2D6: In addition, the type of inhibition was also evaluated.
Enzyme kinetic studies of cytochrome P450 isozyme inhibition were conducted using human liver microsomes.

`CO[P@](=O)(c1cc(C)cc(/C=C/C#N)c1)c1c(C(N)=O)[nH]c2ccc(Cl)c(F)c12` [Compound I, (2-Carbamoyl-5-chloro-4-fluoro-1H-indol-3-yl)-[3-((E)-2-cyano-vinyl)-5-methyl-phenyl]-(R)-phosphinic acid methyl ester]: the half-life at 1 μM in [1] (microsomes) is 100 min. At CYP2D6, the IC50 is over 20 µM and the “IC50, CYP2D6” value is “not observed”. Further, in data set [2], the “SI values from cytotoxicity and activity data in PBMC” value is reported as > 100,000. Also, in data set [3], the “Fold Change, K103N” value came to 3.2 ± 3.5 fold. The “Percentage Plasma Protein Binding, Dogs” value in data set [4] worked out at 99.0%. In [4] (plasma), the fraction unbound is under 0.01. Further, in data set [5] (hepatocytes), the half-life at 1 μM came to 33 ± 26 min. In the data set with wild-type HIV-1 virus, the “interaction with 7 NRTIs or 6 PIs” value is “no negative interaction observed; also recorded: none of the seven HIV NRTI drugs or the six HIV PI drugs tested exhibited a measurable negative or antagonistic interaction”.
Consider `CO[P@](=O)(c1cc(C)cc(/C=C/C#N)c1)c1c(C(N)=O)[nH]c2ccc(Cl)cc12` [Compound III, (2-Carbamoyl-5-chloro-1H-indol-3-yl)-[3-((E)-2-cyano-vinyl)-5-methyl-phenyl]-(R)-phosphinic acid methyl ester], for which the results for the half-life at 1 μM in data set [1] (liver microsomes) and in data set [5] (fresh hepatocytes plated on collagen-coated plates) were 88.8 min and 17 ± 15 min, respectively. The compound also had an IC50 on CYP2D6 of over 20 µM. The “IC50, CYP2D6” value against CYP2D6 was “not observed”. Also, in data set [6], the “Induction, CYP1A2-DRE (CYP1A2)” value was “moderate inducers; also recorded: Not inducer (n = 1)”. Further, in data set [7] (male, Rat, 10 mg/kg PO-Fasted, 3M, mean), the Tmax was 24 min. Besides, the bioavailability in data set [7] (male, Rat, 10 mg/kg PO-Fasted, 3M, IV 2 mg/kg, read-out: BA (absolute oral bioavailability)) worked out at 38%; in data set [7] (rat, po, text b979, (5 mg/kg), read-out: oral bioavailability in rats, exploratory PK studies), 38%. Further, the “Percentage Plasma Protein Binding, Dogs” value in data set [4] is reported as 99.4%. The fraction unbound in [4] (dog plasma) was under 0.01. Further, in the data set with wild-type HIV-1 virus, the “interaction with 7 NRTIs or 6 PIs” value is “no negative interaction observed; also recorded: none of the seven HIV NRTI drugs or the six HIV PI drugs tested exhibited a measurable negative or antagonistic interaction”.
